ChEMBL document CHEMBL1125143, “Relationship between structure, conformational flexibility, and biological activity of agonists and antagonists at the N-methyl-D-aspartic acid subtype of excitatory amino acid receptors” (J Med Chem, 1990)
Calls of active or inactive are those of the source. The rule behind the calls is not given here.

Legend:
[1] = biological target: T1, Glutamate NMDA receptor (Rattus norvegicus) (UniProt P35439+Q00959+Q00960+Q00961+Q62645+Q8VHN2+Q9R1M7)
[2] = biological target: T1, Glutamate NMDA receptor (Rattus norvegicus); assay: Agonistic activity against N-methyl-D-aspartate glutamate receptor was determined in rat cortical slice preparation at concentration up to 5 mM; Not active; assay type: functional
[3] = biological target: T1, Glutamate NMDA receptor (Rattus norvegicus); assay: Antagonistic activity against N-methyl-D-aspartate glutamate receptor antagonist was determined in rat cortical slice preparation at concentration up to 5 mM; not active; assay type: functional
[4] = biological target: T1, Glutamate NMDA receptor (Rattus norvegicus); assay: Effective dose required for agonistic activity against N-methyl-D-aspartate glutamate receptor was determined in rat cortical slice preparation; assay type: functional
[5] = biological target: T1, Glutamate NMDA receptor (Rattus norvegicus); assay: Antagonistic activity against N-methyl-D-aspartate glutamate receptor antagonist was determined in rat cortical slice preparation at concentration up to 1 mM; not active; assay type: functional
[6] = biological target: T1, Glutamate NMDA receptor (Rattus norvegicus); assay: Antagonistic activity against N-methyl-D-aspartate glutamate receptor antagonist was determined in rat cortical slice preparation at concentration up to 100 mM; not active; assay type: functional
[7] = biological target: T1, Glutamate NMDA receptor (Rattus norvegicus); assay: Antagonistic activity against N-methyl-D-aspartate glutamate receptor antagonist was determined in rat cortical slice preparation at concentration up to 100 mM; Active; assay type: functional

| SMILES | ED50 [2] | ED50 [4] [µM] | further results |
| --- | --- | --- | --- |
| CN[C@H](CC(=O)O)C(=O)O | – | – | ED50 [1]: 15 µM |
| O=C(O)[C@@H]1CCC[C@H](C(=O)O)N1 | inactive | – | NA [3]: inactive |
| O=C(O)[C@@H]1CCCN[C@H]1C(=O)O (relative stereo) | – | 35 | – |
| O=C(O)[C@@H]1CCN[C@@H](C(=O)O)C1 (relative stereo) | – | 60 | – |
| O=C(O)[C@@H]1CC[C@H](C(=O)O)NC1 (relative stereo) | – | – | NA [5]: inactive |
| O=C(O)[C@H]1CC[C@H](C(=O)O)NC1 (relative stereo) | inactive | – | NA [3]: inactive |

Continued, in another order:

| ED50 [2] | ED50 [4] [µM] | SMILES | further results |
| --- | --- | --- | --- |
| – | 15 | O=C(O)[C@H]1CCCN[C@H]1C(=O)O (relative stereo) | NA [6]: inactive |
| inactive | – | O=C(O)[C@H]1CCN[C@@H](C(=O)O)C1 (relative stereo) | A [7]: Active |
